Laboratory results as given in the NIST ThermoML archive (doi:10.1016/j.fluid.2012.11.006).
Where “and” joins values, the source holds several entries; their conditions need not be identical. Equal values may be shown once.

Columns and labels:
[1] = molar enthalpy of transition or fusion; conditions: DSC
[2] = molar enthalpy of vaporization or sublimation; conditions: 298.15 K; Crystal; Torsion-effucion
[3] = Molar enthalpy of transition or fusion; conditions: Crystal; DSC

O=C(O)c1cc(Br)cc(Br)c1 [3,5-dibromobenzoic acid]
Conditions	molar enthalpy of transition or fusion	vapor or sublimation pressure
395.9 K, Crystal, Torsion effusion method	–	0.001175 kPa
500.1 K, Liquid, isothermal thermogravimetric	–	1.128 kPa
500.1 K, Liquid, non-isothermal thermogravimetric	–	1.173 kPa
500.7 K, Liquid, non-isothermal thermogravimetric	–	1.118 kPa
501.1 K, Liquid, isothermal thermogravimetric	–	1.191 kPa
501.1 K, Liquid, non-isothermal thermogravimetric	–	1.135 kPa
501.3 K, Liquid, non-isothermal thermogravimetric	–	1.141 kPa
501.6 K, Liquid, isothermal thermogravimetric	–	1.21 kPa
502.2 K, Liquid, isothermal thermogravimetric	–	1.21 kPa
504 K, Liquid, non-isothermal thermogravimetric	–	1.377 kPa
504.6 K, Liquid, isothermal thermogravimetric	–	1.376 kPa
504.9 K, Liquid, non-isothermal thermogravimetric	–	1.33 kPa
505.1 K, Liquid, isothermal thermogravimetric	–	1.405 kPa
505.2 K, Liquid, non-isothermal thermogravimetric	–	1.358 kPa
505.4 K, Liquid, isothermal thermogravimetric	–	1.401 kPa
505.6 K, Liquid, non-isothermal thermogravimetric	–	1.401 kPa
506.3 K, Liquid, isothermal thermogravimetric	–	1.426 kPa
508.2 K, Liquid, non-isothermal thermogravimetric	–	1.617 kPa
508.8 K, Liquid, isothermal thermogravimetric	–	1.646 kPa
508.9 K, Liquid, isothermal thermogravimetric	–	1.615 kPa
509 K, Liquid, non-isothermal thermogravimetric	–	1.592 kPa and 1.624 kPa
509.2 K, Liquid, isothermal thermogravimetric	–	1.652 kPa
509.4 K, Liquid, non-isothermal thermogravimetric	–	1.653 kPa
510.3 K, Liquid, isothermal thermogravimetric	–	1.637 kPa
512.3 K, Liquid, non-isothermal thermogravimetric	–	1.893 kPa
512.9 K, Liquid, isothermal thermogravimetric	–	1.908 kPa
513 K, Liquid, isothermal thermogravimetric	–	1.9 kPa
513.1 K, Liquid, isothermal thermogravimetric	–	1.909 kPa
513.1 K, Liquid, non-isothermal thermogravimetric	–	1.85 kPa
513.3 K, Liquid, non-isothermal thermogravimetric	–	1.802 kPa
513.5 K, Liquid, non-isothermal thermogravimetric	–	1.882 kPa
514.4 K, Liquid, isothermal thermogravimetric	–	1.98 kPa
516.3 K, Liquid, non-isothermal thermogravimetric	–	2.222 kPa
516.7 K, Liquid, isothermal thermogravimetric	–	2.189 kPa
517 K, Liquid, isothermal thermogravimetric	–	2.217 kPa
517.1 K, Liquid, isothermal thermogravimetric	–	2.176 kPa
517.1 K, Liquid, non-isothermal thermogravimetric	–	2.15 kPa and 2.187 kPa
517.5 K, Liquid, non-isothermal thermogravimetric	–	2.228 kPa
518.2 K, Liquid, isothermal thermogravimetric	–	2.223 kPa
520.1 K, Liquid, non-isothermal thermogravimetric	–	2.546 kPa
520.6 K, Liquid, isothermal thermogravimetric	–	2.505 kPa
520.9 K, Liquid, isothermal thermogravimetric	–	2.553 kPa
521 K, Liquid, non-isothermal thermogravimetric	–	2.478 kPa
521.2 K, Liquid, isothermal thermogravimetric	–	2.586 kPa
521.2 K, Liquid, non-isothermal thermogravimetric	–	2.518 kPa
521.4 K, Liquid, non-isothermal thermogravimetric	–	2.57 kPa
522.5 K, Liquid, isothermal thermogravimetric	–	2.612 kPa
524.2 K, Liquid, non-isothermal thermogravimetric	–	2.862 kPa
525 K, Liquid, isothermal thermogravimetric	–	2.943 kPa and 2.941 kPa
525.2 K, Liquid, non-isothermal thermogravimetric	–	2.789 kPa
525.4 K, Liquid, isothermal thermogravimetric	–	2.995 kPa
525.4 K, Liquid, non-isothermal thermogravimetric	–	2.858 kPa
525.5 K, Liquid, non-isothermal thermogravimetric	–	2.884 kPa
526.3 K, Liquid, isothermal thermogravimetric	–	3.009 kPa
528.1 K, Liquid, non-isothermal thermogravimetric	–	3.325 kPa
528.9 K, Liquid, non-isothermal thermogravimetric	–	3.233 kPa and 3.297 kPa
529.2 K, Liquid, non-isothermal thermogravimetric	–	3.322 kPa
[1], 298.15 K, Crystal	120 kJ/mol	–
[1], 491.2 K, Crystal	84.5 kJ/mol and 115 kJ/mol	–
[1], 491.2 K, Liquid	29.4 kJ/mol	–

Conditions	Normal melting temperature [°C]
Crystal, DTA	218.1

Conditions	Molar enthalpy of transition or fusion [kJ/mol]	molar enthalpy [kJ/mol]
[2]	–	120
[3]	84.5	–
